Experimental data published in US12318484B2 (priority 2016, dated 2025).

Test system: IL-1B, IL-8, TLR7 and TLR8 mRNA
Format: cell-based, ferrets
Settings: 100 μM, ferret whole blood

CL075
IL-1B, IL-8, TLR7 and TLR8 mRNA: significant increases
